One compound from US5525627A, “Esters of acyl carnitines with long-chain aliphatic alcohols and pharmaceutical compositions containing same having antimycotic activity” (Sigma-Tau Industrie Farmaceutiche Riunite S.p.A., priority 1992, dated 1996) can be followed below.

Data set [1] is described as follows: Test 2: weight of murine lymphoid organs after repeated oral administrations. Conditions: 100 mg/kg/day oral, 7 consecutive days; x ± S.E. It is filed as in vivo, mice (male B6 D2 F1). The protocol: Test 2: Evaluation of the effect of repeated oral administrations of ST 722 on the weight of murine lymphoid organs (spleen and thymus).
Male B6 D2 F1 mice (C. River) aged 7 weeks (7-8 animals each group) were orally treated with the substance ST 722 at the dose of 100 mg/kg/day for 7 consecutive days. Twenty-four hours after the last administration, the animals were sacrificed, the organs removed and weighed.

In data set [2] the test system is Candida parapsilosis (ISS 1). Nature of the data set: MIC for yeast and yeast-like strains. Conditions: Lodderomyces parapsilosis; 48 hours, 35° C.; read-out: Minimal Inhibitory Concentration (MIC). It is filed as cell-based. The method in brief:
(§1)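 YNB + 0.15% asparagine + 1.0% glucose, 0.165 M MOPS buffer; Sabouraud broth overnight culture (Cryptococcus 48 h); final inoculum ~5.0×10^4 CFU/ml; fungal suspension and drug solution mixed 1:1 in microtiter wells.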

Data set [3] concerns Candida pseudotropicalis (EC 1). As to the kind of experiment: MIC for yeast and yeast-like strains. It counts as cell-based. Conditions: Kluyveromyces marxianus; 48 hours, 35° C.; read-out: Minimal Inhibitory Concentration (MIC). The method in brief: as §1
Data set [4] relates to Cryptococcus neoformans (ISS 1). As to the kind of experiment: MIC for yeast and yeast-like strains. It is filed as cell-based. Conditions: 48 hours, 35° C., read-out: Minimal Inhibitory Concentration (MIC). The method in brief:
as §1

Data set [5] has as its system Candida guilliermondii (ISS 1). Nature of the data set: MIC for yeast and yeast-like strains. Conditions: Meyerozyma guilliermondii; 48 hours, 35° C.; read-out: Minimal Inhibitory Concentration (MIC). It is filed as cell-based. The gist of the method: as §1
The subject of the next data set is Candida albicans (ISS 1). Nature of the data set: MIC for yeast and yeast-like strains. It counts as cell-based. Conditions: 48 hours, 35° C., read-out: Minimal Inhibitory Concentration (MIC). The method in brief: as §1
Data set [6] has as its system Candida tropicalis (ISS 1). As to the kind of experiment: MIC for yeast and yeast-like strains. It is filed as cell-based. Conditions: 48 hours, 35° C., read-out: Minimal Inhibitory Concentration (MIC). The method in brief:
as §1

The subject of another data set is Candida glabrata (ISS 1). Nature of the data set: MIC for yeast and yeast-like strains. It counts as cell-based. Conditions: Nakaseomyces glabratus; 48 hours, 35° C.; read-out: Minimal Inhibitory Concentration (MIC). The gist of the method:
as §1

The test system of data set [7] is Candida albicans (ATCC 2091). As to the kind of experiment: MIC for yeast and yeast-like strains. It counts as cell-based. Conditions: ATCC2091, 48 hours, 35° C., read-out: Minimal Inhibitory Concentration (MIC). The gist of the method:
as §1

A further data set deals with mice. As to the kind of experiment: Assessment of behaviour and mortality in mice (Irwin's method). Also noted: species or system mice (male Crl:(CD-1)(ICR)BR). Conditions: mouse, in vivo, po. How it is done: (§2) ASSESSMENT OF BEHAVIOUR AND MORTALITY IN MICE
(§3) The assessment of normal behaviour in mice was carried out following S. Irwin's method (Psychopharmacologia, 13, 222 [1968]). This method allows alterations in some behavioural, neurophysiologic and neurovegetative parameters to be detected, which are directly observable by the researcher. The study was conducted using male Crl:(CD-1)(ICR)BR mice (Charles River-Italy) weighing 22-25 g. following oral administration of the compounds suspended in carboxymethylcellulose (0.5% by weight in H2 O) to groups of 4 animals/dose.
(§4) The animals were continously kept under observation for five hours following treatment and twice a day in the subsequent five days. Mortality was also observed during the overall test period.

Test in data set [8]: as above
Also noted: species or system mice (male Crl:(CD-1)(ICR)BR). Conditions: mouse, in vivo; oral, dose 1000 (unit inferred), 4 animals/dose. How it is done: as §2, §3, §4

For another data set, the system named is Candida albicans (PG). As to the kind of experiment: MIC and MFC for yeast and yeast-like strains. It is filed as cell-based. The method in brief:
(§5)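 Candida, Cryptococcus, Saccharomyces and Torulopsis strains tested by broth microdilution in Yeast Nitrogen Base with 0.15% asparagine and 1.0% glucose, buffered with 0.165 M MOPS; final inoculum about 5.0×10^4 CFU/ml from overnight (Cryptococcus 48-hour) Sabouraud cultures. MFC from spot-transfer of wells without visible growth onto Sabouraud agar.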

A further data set deals with yeast-like fungi. As to the kind of experiment: MIC / MFC for yeast-like fungi, all strains. It counts as cell-based, Candida, Cryptococcus, Saccharomyces, Torulopsis. Conditions: versus susceptible strains; read-out: Mean MIC values. The method in brief:
as §5

The subject of another data set is C. albicans PG. As to the kind of experiment: Systemic experimental infection with Candida albicans in mice. It is filed as in vivo, Candida albicans in mice (male CD1). Conditions: for % Mortality / Dead/Total: 60 days follow-up; for MST (mean survival time): range of variation in brackets, footnote p ≤ 0.05 (MannWithney "U" test), mark lost. How it is done: Male CD1 mice (C. River) aged 6 or 13 weeks were used (12-15 animals per group).
The pathogenic strain of Candida utilized, i.e. C. albicans PG, was able, when inoculated intravenously, to cause multiple renal lesions and systemic dissemination, provoking death of the animals within 40 days from the challenge.
A broth culture in Sabouraud broth is prepared from a 48-hour agar slant culture.
After incubation for 48 hours at 37° C., the broth culture is first washed 3 times with sterile saline, then adjusted to a concentration of 2.0×10^6 cells/ml. Volumes of 0.25 ml of this suspension are i.v. injected into the animals, with a resulting infective dose approximately corresponding to DL100.
ST 722 was administered per os following two different protocols:
I) 100 mg/kg administered at +2, +12, +24, +36 and +48 hours (i.e. 5 administrations in two days) with respect to the challenge.
II) 100 mg/kg administered twice daily on 6 consecutive days (i.e. 12 adimistrations) starting from day -2 to day +3 with respect to the day of inoculation (day 0).
After the challenge, the animals were followed up for 60 days, and the percent mortality as well as the mean survival time (MST) were evaluated. The statistical significance of the results was evaluated by means of Fisher "exact test" and Mann-Withney "U" test, respectively.

Where [9] appears, read: protocol I: 100 mg/kg per os at +2, +12, +24, +36, +48 hours.
[10] abbreviates: protocol II: 100 mg/kg per os twice daily, day -2 to day +3.

Structures are written as SMILES.

In turn, `CCCCCCCCCCCOC(=O)C[C@H](C[N+](C)(C)C)OC(=O)CC(C)C` [ST 722, isovaleryl-L-carnitine undecyl ester chloride] returned a Body weight in data set [1] of 22.74 ± 0.37 g. The Spleen weight in data set [1] is recorded as 77.88 ± 2.38 mg. The same compound came in with a Thymus weight in data set [1] of 52.88 ± 3.20 mg. Moreover, the MIC in data set [2] amounted to 6.25 µg/mL; in data set [3], 6.25 µg/mL; in [4], 3.12 µg/mL; in data set [5], 6.25 µg/mL; in the data set on Candida albicans (ISS 1) it was 1.56 µg/mL; in [6], 3.12 µg/mL. Besides, the MIC in the data set on Candida glabrata (ISS 1) was 6.25 µg/mL; in data set [7], 3.12 µg/mL; in the data set on Candida albicans (PG) (48 hours, 35° C., read-out: Minimal Inhibitory Concentration (MIC)), 3.12 µg/mL; in the data set with yeast-like fungi, 3.76 µg/mL. In addition, in the data set with mice, the Symptoms entry is reported as “salivation, diarrhoea”. Further, in data set [8], the mortality at 120 h stood at 0%. In the data set with Candida albicans (PG) (48 h, C. albicans PG), the MFC came to 3.12 µg/mL. For the same compound, the “protective effect” value in the data set on C. albicans PG (protocol I and II, per os) is “only in terms of MST prolongation”. Further, the “% Mortality” value with C. albicans PG (setting [9]) and with C. albicans PG (setting [10]) was 71.4% throughout. The Dead/Total in the data set with C. albicans PG (setting [9]) and with C. albicans PG (setting [10]) was 10/14 throughout. In addition, the entries for the “MST (mean survival time)” value in the data set with C. albicans PG (protocol I) and in the data set on C. albicans PG (protocol II) were 37 (25-≥60) days and 44 (32-≥60) days, respectively. For the same compound, the “percent mortality” value in the data set on C. albicans PG (protocol II, per os) is “completely unaffected”.

As usually defined, the mortality is the percentage killed. Low readings indicate more survivors, high ones fewer survivors. Usually MFC stands for the lowest tested concentration that kills the fungus rather than only halting it. Higher therefore signals less potent killing.
